Columns and labels:
[1] = test system: human neonatal keratinocytes; test: Melanosome Uptake Assay; assay type: cell-based
Experimental: Carboxyfluorescein diacetate (“CFDA”) (available from Sigma, St. Louis, Mo.) labeled melanosomes were prepared by incubating CFDA dye in SKMEL-188 culture cells (available from Sloan Kettering Institute) for 2 days at 37° C. in a THERMO SCIENTIFIC FORMA brand CO2 incubator (available from Fisher Scientific, Waltham, Mass.). On day 3 of the test, melansomes were isolated from SKMEL-188 cells by step density centrifugation with sucrose solutions layered with different densities, which is well known in the art. Melanosomes were taken from the 1.6 M-2.0 M sucrose layers. The isolated melanosomes were placed in each well of a 6-well plate along with human neonatal keratinocytes (available from Thermo) (approximately 50,000 keratinocytes/well). 2 ml of the appropriate medium (i.e., the test composition, the positive control or the vehicle control) was added to each of the wells to produce […] (i.e., 3 replicates of each of three composition tested). The test composition was made by adding nicotinamide riboside chloride powder (available from Chromadex, Irvine, Calif.) to EPILIFE brand keratinocyte medium to produce a solution of 0.0025 w/v % nicotinamide riboside. The positive control was made by adding niacinamide to EPILIFE brand keratinocyte medium to produce a solution of 0.0025 w/v % niacinamide. Unmodified keratinocyte medium was used as a vehicle control. The resulting test plates were incubated for two days in EPILIFE brand keratinocyte medium. On day 6 of the test, the keratinocytes were detached from the plates using trypsin and fluorescent-label counted by flow cytometry using an LSRFortessa brand flow cytometer (available from Becton Dickinson, NJ). The percentage of cells that had fluorescence (from CFDA label) was used as a metric to measure incorporation of melanosome uptake. Keratinocytes containing detectable levels of CFDA were counted as a fraction of all keratinocytes passing through the flow cytometer (indicated as % uptake in Table 2). The higher the percentage, the higher level of melanosome uptake into the keratinocytes.

[2] = test system: HMGB1 released from keratinocytes exposed to UVB; test: In Vitro UV Stress Test (HMGB1 ELISA); assay type: cell-based, human; conditions: for amount of HMGB1 released compared to untreated UVB exposed cells: UVB exposed keratinocytes, 0.001 w/v %
Experimental: Human neonatal keratinocytes (available from Thermo) were placed in each well of 4 12-well plates. Each well also contained 2 ml of EPILIFE brand keratinocyte medium. The plates were incubated at 37° C. in a CO2 incubator until cell confluency reached 70%. At this point, the cells, except for the negative control, were exposed to 15 mJ/cm^2 UVB (i.e., UV radiation with a wavelength of from 315-280 nm) in a BIO-SUN brand UV irradiating system (available from Vilber Lourmat, France). After UVB exposure, the keratinocyte medium in each well was replaced with an appropriate medium (i.e., niacinamide medium, nicotinamide riboside medium or a control medium) to produce the test plates. The test plates were incubated for 24 hours at 37° C. in a CO2 incubator, after which the medium in each cell was removed and the HMGB1 level measured using a conventional HMGB1 ELISA kit (REF #ST51011, available from IBL International, Canada) according to the manufacturer's instructions. The test media were made by adding either niacinamide or nicotinamide riboside to EPILIFE brand keratinocyte medium to produce a 0.001 w/v % solution. The control medium was unmodified keratinocyte medium.

[3] = test system: pigmented spots in facial skin; test: Oral nicotinamide riboside, appearance of pigmented spots after cessation of the treatment period; assay type: in vivo; conditions: oral composition
Source text: In some instances, the method herein includes identifying a target portion of facial skin in need of treatment and orally ingesting a safe and effective amount of nicotinamide riboside over the course of a multi-day, or multi-week, or multi-month, or multi-year treatment period. Nicotinamide riboside may be incorporated into a suitable oral composition. The target portion of facial skin is any portion of facial skin (e.g., periorbital, cheek, chin, perioral, nose, forehead, etc.) where improvement in the appearance of skin is desired (e.g., reduction in size and/or increase in lightness of hyperpigmented spot). […] In this way, the present compositions may be used as a preventative measure for skin pigmentation disorders. The oral composition may be ingested one time per day, two times per day, three times per day (e.g., around each meal), four times per day or more during the treatment period. The daily dosage of nicotinamide riboside may be greater than 100 mg, preferably greater than 250 mg, more preferably greater than 300 mg, most preferably greater than 400 mg or 500 mg. The weekly dosage may be greater than 2100 mg/week, 2800 mg/week, or 3500 mg/week. The daily dosage may be provided in a single unit dosage form (e.g., a single pill, capsule or tablet) or may be provided in smaller unit dosage forms if the oral composition is intended to be taken more than once per day. […]

Row | Compound | rate of melanosome uptake compared to the vehicle control ([1]; 0.0025 w/v %) | % Uptake ([1]; 0.0025 w/v % in keratinocyte medium, fraction of keratinocytes with detectable CFDA-labeled melanosomes, flow cytometry) | Rate of Melanosome Uptake Versus Control ([1]; 0.0025 w/v %, vehicle control = 100%) | amount of HMGB1 released compared to untreated UVB exposed cells [2] | time after cessation of the treatment period to regression to baseline in the appearance of the pigmented spots [3] | HMGB1 Released ([2]; UV exposure 15 mJ/cm^2 UVB, 0.001% in medium, 24 hours)
1 | Nicotinamide riboside | increase the rate of melanosome uptake | 67% | 186% | released less HMGB1 | ≤ 2 weeks | –
2 | NC(=O)c1ccc[n+]([C@@H]2O[C@H](CO)[C@@H](O)[C@H]2O)c1.[Cl-] [Nicotinamide Riboside Chloride, nicotinamide riboside chloride] | – | – | – | – | – | 11.5 pg/mL
3 | NC(=O)c1cccnc1 [Niacinamide, niacinamide, reference compound] | inhibit the rate of melanosome uptake | – | – | no significant effect | – | –

Reference: patent US20160374908A1, “SKIN CARE COMPOSITION AND METHODS OF USING THE SAME” (The Procter & Gamble Company, priority 2015, published 2016)
